Source: US8791084B2, “Inhibition of SOX9 function in the treatment of proteoglycan-associated pathophysiological conditions” (Robarts Research Institute, priority 2006, dated 2014)

Key:
SOX9 [1] = assay: SOX9 knock-down by anti-SOX9 siRNA transfection of primary astrocytes, mRNA levels by Q-PCR; assay type: cell-based, rat
Protocol: (§1) Primary astrocyte cultures were prepared from newborn rats at postnatal day 1 (P1) (Wilson and Dixon 1989). The upper portion of the skull was removed and the meninges carefully dissected away to avoid contamination of the culture with fibroblasts. The neocortices were removed, placed into serum-free advanced D-MEM (Dulbecco's Modified Eagle Medium, Invitrogen), homogenized by pipeting and gravity-filtered through 70 μm cell strainer (Falcon). The cells were plated onto 6-well dishes (Falcon). […] Cytokine treatments of primary astrocytes with PDGF, IL-6, TNFα and TGFβ2 (R and D systems) and bFGF2 (Invitrogen) were carried out for 12 hours. RNA was extracted using the Qiagen (Germany) RNA-easy kit following manufacturer's specifications. The transfections of primary astrocytes with SiRNAs and the CMV-SOX9 expression construct were conducted using Lipofectamine 2000 (Invitrogen) according to manufacturer's specifications in 6-well dishes (Falcon). The siRNA ([…]) (SEQ ID No. 4) was used at a concentration of 150 pM. The universal negative control scrambled SiRNA was used according to manufacturer's (Invitrogen) specifications. Transfection efficiencies with a fluorescently-tagged control SiRNA was 35%-40%. The CMV-SOX9 construct has previously been described (Foster et al. 1994; Lefebvre et al. 1997) and plasmid transfection efficiency estimated by cotransfection with a CMV-GFP construct was approximately 10%.
(§2) First strand cDNA was synthesized from 1 μg RNA per condition (cell culture or animal tissue) using the High Capacity cDNA Archive Kit according to the manufacturer protocol (Applied Biosystems Foster City Calif.). The primer probe sets, optical adhesive covers, and PCR plates were purchased from Applied Biosystems (Foster City, Calif.). The probes were labeled with 5′ FAM and with 3′TAMRA as quencher with the exception of the ribosomal probe, which was labeled with 5′ VIC. For Taq Man assays the thermal cycler conditions were 10 minutes at 95° C. followed by 40 cycles of 30 seconds at 95° C. followed by 30 seconds at 60° C. A standard curve of cycle thresholds using cDNA serial dilutions was established and used to calculate abundance of each target mRNA. Technical triplicates and at least biological triplicates were run on all conditions tested. Values were normalized to the amounts of 18S mRNA as determined by Q-PCR. The data were analyzed by a two way ANOVA following by a Bonferroni test with Dunn's correction for multiple comparisons or Dunnet's procedure when comparisons were made with a single variable (control). Student's t-test was used when only two groups were compared.
To test the effect of SOX9 knock-down on the expression of XT-I, XT-II and C4ST, a control (scrambled) small interfering RNA (SiRNA) or an anti-SOX9 SiRNA was transfected into primary astrocytes and mRNA levels of SOX9, XT-I, XT-II and C4ST were assayed by Q-PCR 12 hours later. […] (FIG. 7 E, F).

[2] = system: rat primary astrocyte cultures; assay: Slot blot analysis of CSPG protein (CS56) in cytokine-treated primary astrocytes; assay type: cell-based
Protocol: as §1
Tissue and cell samples were lysed in RIPA buffer [20 mM, Tris-HCl (pH 7.6), 150 mM NaCl, 0.5% sodium deoxycholate, 1% Triton X-100, 0.1% SDS]. […] Immunoreactive bands were scanned by an imaging densitometer (BioRad GF-700 Imaging Densitometer, Mississauga, ON); and results were quantified using Multi-Analist software (BioRad, Mississauga, ON). […]
To evaluate TGFβ2, PDGF and IL-6 as candidate XT-I, XT-II and C4ST transcriptional regulators, rat primary astrocyte cultures were exposed to 1, 10 or 100 ng/ml of each cytokine. After a 12 hour cytokine exposure, XT-I, XT-II and C4ST mRNA levels were measured relative to untreated cultures by Q-PCR. […]

[3] = system: rat primary astrocyte cultures; assay: Cytokine treatment of primary astrocyte cultures, mRNA levels by Q-PCR; assay type: cell-based; conditions: for XT-II mRNA: 6 week-old primary astrocyte cultures, 1, 10 or 100 ng/ml cytokine, 12 hour exposure, relative to untreated cultures; for SOX9 mRNA levels: primary astrocyte cultures after cytokine treatments; for Fibronectin expression / Laminin expression: primary astrocyte cultures following cytokine treatments
Protocol: as §1, §2
To evaluate TGFβ2, PDGF and IL-6 as candidate XT-I, XT-II and C4ST transcriptional regulators, rat primary astrocyte cultures were exposed to 1, 10 or 100 ng/ml of each cytokine. After a 12 hour cytokine exposure, XT-I, XT-II and C4ST mRNA levels were measured relative to untreated cultures by Q-PCR. Six week-old cultures were used as, by this time point, the astrocytes are quiescent (as evidenced by reduced GFAP expression) and baseline levels of XT-I, XT-II and C4ST genes are low.
To test whether SOX9 regulates expression of XT-I, XT-II and C4ST in vitro, primary astrocytes were transfected with a SOX9 expression construct and assessed for CBG mRNA levels by Q-PCR 48 hours later. […] The levels of fibronectin and laminin mRNA in these same cultures were unaffected by SOX9 over-expression. To determine whether IL-6, PDGF and TGF[…]2 might increase XT-I, XT-II and C4ST gene expression by up-regulating SOX9 expression, the expression levels of SOX9 mRNA were assayed after these cytokine treatments in primary astrocyte cultures.

SOX9 [4] = assay: SOX9 luciferase reporter construct assay in primary astrocytes; assay type: cell-based, rat
From the text: Astrocytes, such as wither primary astrocytes (rodent or human) or an established astrocyte cell line designated as Neu7 (Fok-Seang, Smith-Thomas et al. 1995), were transfected with a SOX9 reporter construct under standard conditions. The SOX9 reporter construct (a gift from Dr. Michael Underhill, University of British Columbia) has 4 repeats of the SOX9 binding site coupled to the mouse Col2a1 minimal promoter (−89 to +6) cloned upstream of a luciferase gene in the plasmid pGL4 (Promega) (Weston, Chandraratna et al. 2002). Changes in luciferase levels in transfected cultures is used as a read-out of SOX9 activity. The anti-SOX9 SiRNA previously used (or astrocytes from the SOX9 conditional knock out) is used as a positive control and the scrambled siRNA is used as a negative control for this screen. The screen is used to identify compounds that reduce the levels of luciferase activity relative to control wells. […]
Specifically, primary astrocytes obtained from newborn rats were cultured in 6-well dishes for 6 weeks in Advanced-DMEM with 10% FBS. […] Transfection efficiency was calculated by co-transfection with a control plasmid. […] Twenty-four hours after the TGF-β2 application the cells were lysed and luciferase activity was measured using the Luciferase Assay System (PROMEGA) (according to the manufacturer's protocol) and a luminometer.

[5] = SOX9 knock-down in primary astrocytes
[6] = TGFβ2-treated primary astrocytes
[7] = primary astrocytes, 12 hours after transfection, siRNA 150 pM
[8] = TGFβ2 treatment alone, primary astrocytes

Substance: AAAGUUGUCGCUCCCACUGAAGUUU (listed as RNA, chemistry not given here) [anti-SOX9 siRNA, small interfering RNA against SOX9, used at 150 pM in primary astrocytes]
- fibronectin gene expression (SOX9 [1]; [5]): did not decrease
- laminin gene expression (SOX9 [1]; [5]): did not decrease
- reduction in SOX9 mRNA levels (SOX9 [1]; [6]): 87±13%
- reduction in XT-I mRNA (SOX9 [1]; [6]): 68±6.4%
- reduction in SOX9 mRNA levels (SOX9 [1]; [7]): 75±12%
- reduction in XT-I mRNA (SOX9 [1]; [7]): 71±5.5%

Substance: IL-6: cytokine (R and D systems) used to treat primary astrocytes
- CSPG protein expression [2]: increased expression
- XT-II mRNA [3]: strong, concentration-dependent up-regulation
- SOX9 mRNA levels [3]: significant increase
- Fibronectin expression [3]: similarly increased
- Laminin expression [3]: similarly increased

Substance: PDGF
- CSPG protein expression [2]: increased expression
- XT-II mRNA [3]: strong, concentration-dependent up-regulation
- SOX9 mRNA levels [3]: significant increase
- Fibronectin expression [3]: similarly increased
- Laminin expression [3]: similarly increased

Substance: TGFβ2: cytokine (R and D systems) used to treat primary astrocytes
- luciferase activity (SOX9 [4]; SOX9 luciferase reporter construct following treatment (FIG. 10)): increased
- increase in luciferase activity (SOX9 [4]; TGF-β2 final concentration 10 nM, 24 hours, primary astrocytes from newborn rats cultured 6 weeks): ~2 fold
- SOX9 mRNA levels (SOX9 [1]; [8]): increased
- XT-1 mRNA levels (SOX9 [1]; [8]): increased
- CSPG protein expression [2]: increased expression
- XT-II mRNA [3]: strong, concentration-dependent up-regulation
- SOX9 mRNA levels [3]: significant increase
- Fibronectin expression [3]: similarly increased
- Laminin expression [3]: similarly increased

Substance: bFGF: cytokine (Invitrogen) used to treat primary astrocytes
- XT-II mRNA [3]: no effect
